# What was measured:
# MIN6N8 murine β-cells = assay: ER stress (ERAI reporter of Xbp1-splicing / Xbp1 splicing) in MIN6N8 β-cells; format: cell-based
# Method: MIN6N8 cells are maintained in line with standard protocols. Cells are transfected with either the ERAI reporter plasmid (F-XBP1ΔDBD-Venus), or the ATF6-GFP plasmid (ADGENE), using LIPFECTAMINE 2000 according to the manufacturer's instructions.
# On induction of ER stress, splicing of […] mRNA by IRE1a results in the translation of Venus, but not an active form of XBP1. Fluorescence was measured (excitation: 485 nm; emission: 520 nm) using the POLARstar Omega plate reader and cells were treated 48 h after transfection. The results are normalized with Gapdh expression as fold of vehicle-treated control (Con) cells.
# Activation of ATF6 was assessed as follows: the area in pixels per square millimeter co-stained ATF6 and DAPI (blue and green), and total ATF6 staining (green) was determined in 5 fields of view for each section (n=6 for each condition) using IMAGEJ software version 1.45s. Data are presented as the percentage of ATF6 and DAPI co-fluorescence to the total ATF6 fluorescence. Phosphorylation of Ser-51 of eiF2 α was determined by an AlphaScreen assay as per the manufacturer's instructions (PERKIN-ELMER). The Griess reagent method was performed according to the manufacturer's instructions (MOLECULAR PROBES) to assess the intracellular levels of nitric oxide. 5-(and -6-)-carboxy-2,7-dichlorofluorescein diacetate (DCFDA) assay was used to determine the intracellular levels of H2O2 as previously described (Sakon et al., 2003). Cells were treated with glucose or recombinant cytokines at the concentrations indicated in the figure legends, or with 5 μM thapsigargin (SIGMA-ALDRICH) or 10 μg/mL tunicamycin (SIGMA-ALDRICH) or 0.1-0.5 mM Palmitate (SIGMA-ALDRICH) for the times indicated in the legends. ROS was […] using the dihydroethidium (DHE) fluorescent cell-permeable probe (SIGMA-ALDRICH). MIN6N8 cells plated at 2×10^6/mL were incubated with 3 μM DHE and subsequently treated with DMSO (control), 50 ng/mL IL-23 for 30 minutes±[…] IL-22 at the same time or 30 minutes prior to IL-23.
# To inhibit transcription factors the following specific inhibitors (and concentrations) were used:
# MIN6N8 cells were exposed to a panel of cytokines to determine the effect of each cytokine on ER stress. ER stress was measured using the above-described method. Specifically, the cells were exposed to either a 24 hour treatment of any one of […] glucose (hi glucose), 10 μM H2O2, 0.5 mM palmitic acid or 50 ng/mL cytokines; or a 6 hour treatment with 10 μg/mL tunicamycin or 5 μM thapsigargin.
# Experiments to assess ER and/or oxidative stress, and methods of qRT-PCT and/or quantifying gene expression were performed as described for Example 1. Xbp1 splicing is assessed by qRT-PCR, with normalization versus Gapdh, and expression presented as fold of vehicle-treated control cells.
# [1] = test system: mice with high fat diet-induced obesity (HFDIO); assay: HFDIO Experiment 2: 22 weeks of diet, IL-22 for the last 30 days; format: in vivo, C57BL/6 male mice; settings: for Body weight (% original) / Fasting blood glucose / Fasting serum insulin concentration / Fasting serum proinsulin concentration: HFDIO Experiment 2, 22 weeks on HFD
# Text: (§1) All mice were housed in sterilized, filter-topped cages in a conventional clean facility. Six to eight week old C57BL/6 male mice were fed ad libitum on a high fat diet containing 46% of available energy as saturated fat, 34% carbohydrate, 20% protein (Speciality feeds, SF04-027). Or on normal chow containing less than 10% saturated fat (GOLDMIX, 126575). Cages of mice were randomly allocated to the experimental groups by random draw. Investigators were not blinded to treatment by there were no subjective assessments made.
# (§2) Total insulin and proinsulin were measured in supernatant from islet cultures or in serum from mice using commercially obtained ELISA kits from MILLIPORE and MERCODIA, respectively. The molar insulin concentration was determined by subtracting the molar proinsulin concentration from molar total insulin, and then the serum proinsulin:insulin ratio was calculated.
# From 18-22 weeks of diet, mice were treated (for 30 days) with 20 or 100 ng/g i.p. recombinant murine IL-22 twice weekly (R&D SYSTEMS) or 0.1 mg/mouse irrelevant isotype control antibody, sacrificed and sampled.
# Fasted i.p. glucose tolerance tests (2 g/kg glucose) and insulin tolerance tests (0.25 U/kg insulin; Humalog, Lilly) were performed at the times indicated in the Figure Legends. […]
# murine islets = assay: Murine islets ex vivo: ER stress, gene expression, insulin and proinsulin secretion; format: cell-based, mice
# Method: Healthy islets were cultured with 10 μg/mL tunicamycin or 5 μM thapsigargin±IL-22 for 6 hours. Alternatively the islets were cultured in the presence of ER stress-inducing cytokines±IL-22 for 24 hours. The cultures were then cultured consecutively for 30 minutes in 2.8 mM glucose, 20 mM glucose, or a combination of 20 mM glucose and 100 nM GLP-1.
# as §1, §2
# [2] = healthy islets, co-treatment with ER stress agents
substance,measurement,setting,value
IL-22: interleukin-22; recombinant murine IL-22 (R&D SYSTEMS) in the mouse experiments,UPR activation when ER stress is induced with thapsigargin,"MIN6N8 murine β-cells; 5 μM thapsigargin ± IL-22, 6 hours",increases UPR activation
same,ER stress induced with palmitic acid,"MIN6N8 murine β-cells; 0.1-0.5 mM palmitic acid ± IL-22, 24 hours",inhibits ER stress
same,lowest concentration with efficacy as suppressor of ER stress,MIN6N8 murine β-cells; MIN6 β-cells,around 5 ng/mL
same,UPR activation by the cytokine alone,MIN6N8 murine β-cells; no stressor,does not appear to activate the UPR
same,inhibition of ER stress initiated by cytokines or tunicamycin,MIN6N8 murine β-cells; pair-wise combinations of cytokines,inhibit ER stress
same,decrease of serum proinsulin,[1]; 100 ng/g,97%
same,islet ER stress (Xbp1 splicing),[1]; 100 ng/g,Xbp1 splicing indistinguishable from normal chow islets
same,body weight during treatment,"[1]; 20 or 100 ng/g, last 30 days of 22-week HFD",progressively decreased
same,Body weight (% original),[1]; 20 ng/g,188 ± 13 % original
same,Fasting blood glucose,[1]; 20 ng/g,11.3 ± 0.5 mmol/L
same,Fasting serum insulin concentration,[1]; 20 ng/g,0.7 ± 0.4 ng/mL
same,Fasting serum proinsulin concentration,[1]; 20 ng/g,14.1 ± 2.9 pmol/L
same,Body weight (% original),[1]; 100 ng/g,189 ± 17 % original
same,Fasting blood glucose,[1]; 100 ng/g,10.6 ± 1.3 mmol/L
same,Fasting serum insulin concentration,[1]; 100 ng/g,0.5 ± 0.3 ng/mL
same,Fasting serum proinsulin concentration,[1]; 100 ng/g,4.7 ± 1.8 pmol/L
same,time until random fed blood glucose decreased to levels of normal chow fed mice,[1]; both doses (20 and 100 ng/g),≤ 7 days
same,insulin resistance in ITT,[1]; day 16 of therapy,no or modest improvement in insulin resistance
same,serum total insulin during IPGTT,[1]; day 25,complete suppression of fasting hyperinsulinemia and normalization of GSIS
same,glycemic control in IPGTT,[1]; day 25 of therapy,glycemic control indistinguishable from control non-obese mice
same,insulin resistance in ITT,"[1]; day 29, both doses",insulin resistance had decreased
same,serum proinsulin:insulin ratio,[1]; end of treatment,normalization of the serum proinsulin:insulin ratio
same,proinsulin secretion by islets ex vivo,"[1]; islets from HFD mice treated in vivo, glucose/GLP-1",reduced in a dose-dependent manner
same,islet expression of anti-oxidant genes and Nos2,[1]; islets from HFDIO mice treated in vivo,further increased expression of anti-oxidant genes and suppressed Nos2
same,insulin secretion in response to glucose by islets ex vivo,[1]; islets from obese mice treated for 30 days,correction of insulin hyper-secretion in response to glucose
same,"pathology in skin, intestine or liver",[1]; up to 100 μg/kg for up to 30 days,"no pathology was observed in the skin, intestine or liver"
same,MIP2α mRNA,murine islets; HFDIO islets cultured 24 h in 2.8 mM glucose ± 50 ng/mL IL-22,reduced substantially
same,"acute islet ER stress (Xbp1-splicing, Hspa5 mRNA)",murine islets; [2],suppresses the acute islet oxidative stress-driven ER stress
same,glucose and glucose plus GLP-1 stimulated insulin secretion,murine islets; [2],restores appropriate glucose and glucose plus GLP-1 stimulated insulin secretion
same,proinsulin secretion,murine islets; islets from HFDIO mice,proinsulin secretion ceased
same,insulin hyper-secretion (GSIS),"murine islets; islets from HFDIO mice, after culture",returned to levels in non-obese islets
same,"ER stress, antioxidant gene expression and Nos2","murine islets; islets from HFDIO mice, culture 24 hours","reduced ER stress, increased antioxidant gene expression and decreased Nos2"
